Results on one compound are retold here after patent US11331290B2, “Niclosamide for the treatment of cancer metastasis” (Max-Delbrück-Centrum für Molekulare Medizin in der …, priority 2011, dated 2022).

Holding throughout (assay type): cell-based, human
One test deals with HCT116-S100A4 cells. Description: Boyden chamber invasion assay (Matrigel). To be noted: 1 μM, 24 h, statistically not significant. As for the experimental part: (§1) HCT116, SW620, LS174T, SW480 and DLD-1 cells were used in cell migration and invasion analysis performed with Boyden chamber assay. 400 μL containing 2.5×10^5 cells were seeded into each transwell chamber with filter membranes of 12.0 μm pore size (Millipore, Schwalbach, Germany). For invasion filter membranes were coated with 50 μL Matrigel (diluted 1:3 in RPMI-1640; BD Biosciences) 10 minutes before cells were seeded. Fresh medium (600 μL) were added to the bottom chamber and cells were allowed to attach to the insets for 15 hours. Both chambers were treated with 1 μM niclosamide or the respective amount of DMSO and incubated at 37° C. and 5% CO2 in a humidified incubator for 24 hours. Afterwards insets were removed and cells that had migrated through the membrane to the lower chamber were trypsinized and counted in a Neubauer chamber (LO-Laboroptik, Bad Homburg, Germany). Each well was counted ten times. Each migration or invasion experiment was performed in duplicate. The average number of migrated or invaded cells was determined for at least three independent experiments.
(§2) (A) Cell migration of HCT116-vector and HCT116-S100A4 cells exposed to niclosamide treatment. Cells were treated with 1 μM niclosamide for 24 hours and migration rates were measured with Boyden chamber assay. (B) Cell invasion of HCT116-vector and HCT116-S100A4 cells exposed to niclosamide treatment. Cells were treated with 1 μM niclosamide for 24 hours and cell invasion was determined by Boyden chamber assay. (C) Directed migration of HCT116-vector and HCT116-S100A4 cells exposed to niclosamide treatment analyzed by wound healing assay. Wounds of 300 μM width were set in a 60% confluent monolayer of HCT116-vector or HCT116-S100A4 cells on day 1. Cells were treated daily with 1 μM niclosamide for 4 days. Microphotographs of day 4 are presented here with black lines indicating margins of entered wound of day 1; scale bar represents 200 μM. Data represents three independent experiments. (D) Adhesive cell proliferation of HCT116-vector and HCT116-S100A4 cells exposed to niclosamide treatment. Cells were treated daily with 1 μM niclosamide and cell viability was determined with MTT assay. (E) Anchorage-independent cell growth of HCT116-vector and HCT116-S100A4 cells exposed to niclosamide treatment. Cells were plated as single cells into 0.33% (w/v) agarose and treatment (solvent or 1 μM niclosamide) containing medium. After 7 days colonies were visualized by light microscopy at 10× (overview) and 40× (single colony) magnification. (F) Quantification of colonies formed. Number of colonies (of more than 4 cells) was counted and normalized to solvent-treated HCT116-vector cells. Differences of niclosamide vs. solvent-treated cells were analyzed by Student's t test. […]

In the next test the test system is HCT116-vector cells. Description: Boyden chamber invasion assay (Matrigel). As to conditions: 24 h. The method, then:
as §1, §2

Test [1] has as its system WNT/CTNNB1 pathway (LEF/TCF transcription factor reporter). Description: WNT/CTNNB1 pathway activity reporter assay (TOP/FOPflash). As to conditions: 24 h. The text has this: The lymphoid enhancer-binding factor 1 (LEF)/transcription factor (TCF) activity reporter assay, also known as TOP/FOPflash assay (Promega, Madison, Wis.) was previously used to analyze the WNT/CTNNB1 pathway activity in human colon cancer cells (24). It comprises the TOPflash plasmid which contains a hexameric repetition of the LEF/TCF-binding element upstream of a thymidine kinase (TK) promoter and firefly luciferase as reporter gene. The FOPflash plasmid comprised the exact sequence of the TOPflash plasmid, but with point mutated LEF/TCF-binding sites. In the assay, 8×10^4 HCT116 cells were plated in 24-well-plates and were given 15 hours to attach to the bottom of the well. Cells were transfected with TOPflash or FOPflash plasmids using Metafecten according to the manufacturer's instruction 24 hours before they were treated with 1 μM niclosamide or the respective amount of DMSO for another 24 hours. Luciferase activity as read out for LEF/TCF activity and thus WNT/CTNNB1 pathway activity was measured by the Steady Glow™ Luciferase Assay System (Promega) according to the manufacturer's instructions in the luminescence reader SpectraFluor Plus (Tecan) with 1500 milliseconds exposure time and a gain of 150. TOPflash reporter gene expression (representing the WNT pathway activity) was normalized to FOPflash reporter gene expression (representing basal reporter gene expression and transfection efficiency). The average of three independent experiments is given here, whereas each experiment was performed in duplicate.
For WNT pathway analysis the following cells were applied: HCT116 cells (heterozygous for gain-of-function-mutated CTNNB1; wt/mut), HAB-68mut cells (deletion mutant of HCT116, expressing only gain-of-function-mutated CTNNB1: −/mut) and HAB-92 wt cells (deletion mutant of HCT116, expressing only wild-type CTNNB1: wt/−). (A) CTNNB1 genotype dependent effect of niclosamide on LEF/TCF transcription factor reporter gene expression. Cells were treated with 1 μM niclosamide for 24 hours. Reporter gene expression was determined by luciferase activity measurement. For each condition and cell line TOPflash expression was normalized to FOPflash expression. (B) CTNNB1 genotype dependent effect of niclosamide on S100A4 expression. Cells were treated with 1 μM niclosamide for 24 hours. S100A4 expression was analyzed by qRT-PCR and immunoblot. (C) CTNNB1 genotype dependent effect of niclosamide on migration rates. Cells were treated with 1 μM niclosamide for 24 hours and cell migration was determined by Boyden chamber assay. Data represents mean±SE of at least three independent experiments. Differences were analyzed by Student's t test (n.s.; not statistically significant). (D) Nuclear localization of CTNNB1 under niclosamide treatment. Nuclear extracts of HCT116 cells treated with the indicated concentrations of niclosamide for 18 hours were analyzed by immunoblot. (E) Effect of niclosamide on CTNNB1/TCF complex. Nuclear extracts of HCT116 cells treated with the indicated concentrations of niclosamide for 18 hours were analyzed by EMSA for the TCF-binding site of the S100A4 promoter. Supershift was performed by addition of a monoclonal anti-CTNNB1 antibody. (F) Presence of CTNNB1 on the S100A4 promoter under niclosamide treatment. HCT116 cells were treated with 1 μM niclosamide for 18 hours and processed for ChIP assay. Soluble chromatin was immunoprecipitated with a monoclonal anti-CTNNB1 antibody or a nonspecific control IgG antibody. Primers used in PCR amplified a 167 bp fragment of the S100A4 promoter or 149 bp fragment of the FOS promoter. The input verified the integrity of the PCR. […] Data shown are representatives of at least two independent experiments.
For orientation: Reporter assays use an easily measured gene product as a stand-in for the process of interest.

With `O=C(Nc1ccc([N+](=O)[O-])cc1Cl)c1cc(Cl)ccc1O` [niclosamide, 2′,5-dichloro-4′-nitrosalicylanilide], in the test on HCT116-S100A4 cells (solvent control 111.4%), the “invasion rate, mean %” value is 122.5%. Also, the “invasion, mean difference control vs niclosamide” value in the test with HCT116-S100A4 cells is reported as −11.1%; with HCT116-vector cells (1 μM), 69.9%. Besides, the activity at 1 µM in the test on HCT116-vector cells (Homo sapiens, read-out: number of invaded cells, mean % of control) amounted to 30.1%. The “WNT pathway activity, mean difference control vs niclosamide” value in test [1] (HAB-68mut, 1 μM) is 0.90; in test [1] (HAB-92 wt, 1 μM), 0.15; in test [1] (HCT116, 1 μM), 0.61. The “WNT pathway activity (TOPflash normalized to FOPflash), mean” value is 0.50 in test [1] (HAB-68mut, 1 μM, control 1.39); 0.21 in test [1] (HAB-92 wt, 1 μM, control 0.36); 0.39 in test [1] (HCT116, 1 μM, control 1.00).
